Patent US8741836B2, “Polypeptides” (Novo Nordisk A/S, priority 2011, dated 2014)
Starred links: 1 amine or outer side, 2 acyl side, 3 side chain; linkers in the order of their positions; H or OH if unused. Positions of bridges follow the written chain, without caps; N, C: chain ends. Non-standard residues stand in square brackets, D forms with d. Residues, ends and D or L forms follow the SMILES beside them. *: point of attachment. C20 diacid = O=C(O)CCCCCCCCCCCCCCCCCCC(=O)*; C18 diacid = O=C(O)CCCCCCCCCCCCCCCCC(=O)*; γGlu = O=C(O)[C@H](CCC(=O)[*:2])N[*:1]; Orn = NCCC[C@H](N)C(=O)O; AEEA = NCCOCCOCC(=O)O

What was measured:
[1] = Assay (III) ThT fibrillation assay for physical stability; assay type: physicochemical; settings: pH 4.0, ThT fibrillation assay
How it was run: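 Freshly prepared, pH-adjusted formulations with 1 μM ThT incubated at 37 °C under 960 rpm orbital shaking (1 mm), fluorescence (ex 444, em 485 nm) read every 20 min. […] Peptide content before and after measured by reverse-phase HPLC against pramlintide standard.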

[2] = tested on: ad libitum fed rat; assay: Assay (I) efficacy testing on appetite (food intake) using an ad libitum fed rat model; assay type: in vivo, Sprague Dawley (SD) rats; settings: 3 nmol/kg
How it was run: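 Ad libitum fed Sprague Dawley rats, 200-250 g, singly housed on reversed light cycle, got one ip, po or sc dose of 0.01-3 mg/kg just before lights off; groups of 5-8 with vehicle control. Food intake recorded hourly for 7 h, then at 24 h and sometimes 48 h; Grubbs outliers excluded.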

ThT pH 4.0 lag time [1] [h] | SMILES | Food intake reduction 0-24 h 3 nmol/kg (%) [2] [%] | Food intake reduction 24-48 h 3 nmol/kg (%) [2] [%]
>45 | CC[C@H](C)[C@H](NC(=O)[C@@H]1CCCN1C(=O)CNC(=O)[C@H](Cc1ccccc1)NC(=O)[C@H](CO)NC(=O)[C@H](CO)NC(=O)[C@H](CO)NC(=O)[C@H](CO)NC(=O)[C@H](CCCNC(=N)N)NC(=O)[C@H](Cc1c[nH]cn1)NC(=O)[C@H](CC(C)C)NC(=O)[C@H](Cc1ccccc1)NC(=O)[C@H](CCC(=O)O)NC(=O)[C@H](C)NC(=O)[C@H](CC(C)C)NC(=O)[C@H](CCCNC(=N)N)NC(=O)[C@H](CCC(N)=O)NC(=O)[C@@H](NC(=O)[C@H](C)NC(=O)[C@@H]1CSSC[C@H](NC(=O)[C@H](Cc2c[nH]cn2)NC(=O)CC[C@H](NC(=O)CCCCCCCCCCCCCCCCCCC(=O)O)C(=O)O)C(=O)N[C@@H](CC(N)=O)C(=O)N[C@@H]([C@@H](C)O)C(=O)N[C@@H](C)C(=O)N[C@@H]([C@@H](C)O)C(=O)N1)[C@@H](C)O)C(=O)N[C@@H](CC(C)C)C(=O)N1CCC[C@H]1C(=O)N1CCC[C@H]1C(=O)N[C@H](C(=O)N[C@@H](CC(=O)O)C(=O)N[C@H](C(=O)NCC(=O)N[C@@H](CO)C(=O)N[C@@H](CC(=O)O)C(=O)N[C@H](C(=O)N[C@@H](Cc1ccc(O)cc1)C(N)=O)[C@@H](C)O)C(C)C)[C@@H](C)O [Example 9, N-alpha-[(S)-4-Carboxy-4-(19-carboxynonadecanoylamino)butyryl]-[His1,Glu14,His17,Arg18,Ser21,Ser22,Asp31,Asp35]-pramlintide] ({C20 diacid-γGlu}-HCNTATCATQRLAEFLHRSSSSFGPILPPTDVGSDTY-NH2; disulfide 2-7) | 39 | 32
 | CC[C@H](C)[C@H](NC(=O)[C@@H]1CCCN1C(=O)CNC(=O)[C@H](Cc1ccccc1)NC(=O)[C@H](CC(N)=O)NC(=O)[C@H](CC(N)=O)NC(=O)[C@H](CO)NC(=O)[C@H](CO)NC(=O)[C@H](Cc1c[nH]cn1)NC(=O)[C@H](Cc1c[nH]cn1)NC(=O)[C@H](CC(C)C)NC(=O)[C@H](Cc1ccccc1)NC(=O)[C@H](CCC(=O)O)NC(=O)[C@H](C)NC(=O)[C@H](CC(C)C)NC(=O)[C@H](CCCNC(=N)N)NC(=O)[C@H](CCC(N)=O)NC(=O)[C@@H](NC(=O)[C@H](C)NC(=O)[C@@H]1CSSC[C@H](NC(=O)[C@H](CCCCN)NC(=O)[C@H](CCC(=O)O)NC(=O)CC[C@H](NC(=O)CCCCCCCCCCCCCCCCC(=O)O)C(=O)O)C(=O)N[C@@H](CC(N)=O)C(=O)N[C@@H]([C@@H](C)O)C(=O)N[C@@H](C)C(=O)N[C@@H]([C@@H](C)O)C(=O)N1)[C@@H](C)O)C(=O)N[C@@H](CC(C)C)C(=O)N1CCC[C@H]1C(=O)N1CCC[C@H]1C(=O)N[C@H](C(=O)N[C@@H](CC(N)=O)C(=O)N[C@H](C(=O)NCC(=O)N[C@@H](CO)C(=O)N[C@@H](CC(N)=O)C(=O)N[C@H](C(=O)N[C@@H](Cc1ccc(O)cc1)C(N)=O)[C@@H](C)O)C(C)C)[C@@H](C)O [Example 42, N-alpha-[(S)-4-Carboxy-4-(17-carboxyheptadecanoylamino)butyryl]-Glu-[Glu14,His17]-pramlintide] ({C18 diacid-γGlu}-EKCNTATCATQRLAEFLHHSSNNFGPILPPTNVGSNTY-NH2; disulfide 3-8) | 45 | 5
 | CC[C@H](C)[C@H](NC(=O)[C@@H]1CCCN1C(=O)CNC(=O)[C@H](Cc1ccccc1)NC(=O)[C@H](CC(N)=O)NC(=O)[C@H](CC(N)=O)NC(=O)[C@H](CO)NC(=O)[C@H](CO)NC(=O)[C@H](Cc1c[nH]cn1)NC(=O)[C@H](Cc1c[nH]cn1)NC(=O)[C@H](CC(C)C)NC(=O)[C@H](Cc1ccccc1)NC(=O)[C@H](CCC(=O)O)NC(=O)[C@H](C)NC(=O)[C@H](CC(C)C)NC(=O)[C@H](CCCNC(=N)N)NC(=O)[C@H](CCC(N)=O)NC(=O)[C@@H](NC(=O)[C@H](C)NC(=O)[C@@H]1CSSC[C@H](NC(=O)[C@H](CCCCN)NC(=O)CC[C@H](NC(=O)CCCCCCCCCCCCCCCCC(=O)O)C(=O)O)C(=O)N[C@@H](CC(N)=O)C(=O)N[C@@H]([C@@H](C)O)C(=O)N[C@@H](C)C(=O)N[C@@H]([C@@H](C)O)C(=O)N1)[C@@H](C)O)C(=O)N[C@@H](CC(C)C)C(=O)N1CCC[C@H]1C(=O)N1CCC[C@H]1C(=O)N[C@H](C(=O)N[C@@H](CC(N)=O)C(=O)N[C@H](C(=O)NCC(=O)N[C@@H](CO)C(=O)N[C@@H](CC(N)=O)C(=O)N[C@H](C(=O)N[C@@H](Cc1ccc(O)cc1)C(N)=O)[C@@H](C)O)C(C)C)[C@@H](C)O [Example 46, N-alpha-[(S)-4-Carboxy-4-(17-carboxyheptadecanoylamino)butyryl]-[Glu14,His17]-pramlintide] ({C18 diacid-γGlu}-KCNTATCATQRLAEFLHHSSNNFGPILPPTNVGSNTY-NH2; disulfide 2-7 (inferred); C-terminus assumed) | 54 | 27
 | CC[C@H](C)[C@H](NC(=O)[C@@H]1CCCN1C(=O)CNC(=O)[C@H](Cc1ccccc1)NC(=O)[C@H](CC(N)=O)NC(=O)[C@H](CC(N)=O)NC(=O)[C@H](CO)NC(=O)[C@H](CO)NC(=O)[C@H](Cc1c[nH]cn1)NC(=O)[C@H](Cc1c[nH]cn1)NC(=O)[C@H](CC(C)C)NC(=O)[C@H](Cc1ccccc1)NC(=O)[C@H](CCC(=O)O)NC(=O)[C@H](C)NC(=O)[C@H](CC(C)C)NC(=O)[C@H](CCCNC(=N)N)NC(=O)[C@H](CCC(N)=O)NC(=O)[C@@H](NC(=O)[C@H](C)NC(=O)[C@@H]1CSSC[C@H](NC(=O)[C@H](CCCCN)NC(=O)[C@H](CCC(=O)O)NC(=O)CC[C@H](NC(=O)CCCCCCCCCCCCCCCCCCC(=O)O)C(=O)O)C(=O)N[C@@H](CC(N)=O)C(=O)N[C@@H]([C@@H](C)O)C(=O)N[C@@H](C)C(=O)N[C@@H]([C@@H](C)O)C(=O)N1)[C@@H](C)O)C(=O)N[C@@H](CC(C)C)C(=O)N1CCC[C@H]1C(=O)N1CCC[C@H]1C(=O)N[C@H](C(=O)N[C@@H](CC(N)=O)C(=O)N[C@H](C(=O)NCC(=O)N[C@@H](CO)C(=O)N[C@@H](Cc1c[nH]cn1)C(=O)N[C@H](C(=O)N[C@@H](Cc1ccc(O)cc1)C(N)=O)[C@@H](C)O)C(C)C)[C@@H](C)O [Example 56, N-alpha-[(S)-4-Carboxy-4-(19-carboxynonadecanoylamino)butyryl]-Glu-[Glu14,His17,His35]-pramlintide] ({C20 diacid-γGlu}-EKCNTATCATQRLAEFLHHSSNNFGPILPPTNVGSHTY-NH2; disulfide 3-8) | 46 | 21
 | CC[C@H](C)[C@H](NC(=O)[C@@H]1CCCN1C(=O)CNC(=O)[C@H](Cc1ccccc1)NC(=O)[C@H](CC(N)=O)NC(=O)[C@H](CC(N)=O)NC(=O)[C@H](CO)NC(=O)[C@H](CO)NC(=O)[C@H](Cc1c[nH]cn1)NC(=O)[C@H](Cc1c[nH]cn1)NC(=O)[C@H](CC(C)C)NC(=O)[C@H](Cc1ccccc1)NC(=O)[C@H](CCC(=O)O)NC(=O)[C@H](C)NC(=O)[C@H](CC(C)C)NC(=O)[C@H](CCCNC(=N)N)NC(=O)[C@H](CCC(N)=O)NC(=O)[C@@H](NC(=O)[C@H](C)NC(=O)[C@@H]1CSSC[C@H](NC(=O)[C@H](Cc2c[nH]cn2)NC(=O)CC[C@H](NC(=O)CCCCCCCCCCCCCCCCCCC(=O)O)C(=O)O)C(=O)N[C@@H](CC(N)=O)C(=O)N[C@@H]([C@@H](C)O)C(=O)N[C@@H](C)C(=O)N[C@@H]([C@@H](C)O)C(=O)N1)[C@@H](C)O)C(=O)N[C@@H](CC(C)C)C(=O)N1CCC[C@H]1C(=O)N1CCC[C@H]1C(=O)N[C@H](C(=O)N[C@@H](CC(N)=O)C(=O)N[C@H](C(=O)NCC(=O)N[C@@H](CO)C(=O)N[C@@H](CC(N)=O)C(=O)N[C@H](C(=O)N1CCC[C@H]1C(N)=O)[C@@H](C)O)C(C)C)[C@@H](C)O [Example 84, N-alpha-[(S)-4-Carboxy-4-(19-carboxynonadecanoylamino)butyryl]-[His1,Glu14,His17,Pro37]-pramlintide] ({C20 diacid-γGlu}-HCNTATCATQRLAEFLHHSSNNFGPILPPTNVGSNTP-NH2; disulfide 2-7 (inferred)) | 68 | 67
 | CC[C@H](C)[C@H](NC(=O)[C@@H]1CCCN1C(=O)CNC(=O)[C@H](Cc1ccccc1)NC(=O)[C@H](CC(N)=O)NC(=O)[C@H](CC(N)=O)NC(=O)[C@H](CO)NC(=O)[C@H](CO)NC(=O)[C@H](CCCNC(=N)N)NC(=O)[C@H](Cc1c[nH]cn1)NC(=O)[C@H](CC(C)C)NC(=O)[C@H](Cc1ccccc1)NC(=O)[C@H](CCC(=O)O)NC(=O)[C@H](C)NC(=O)[C@H](CC(C)C)NC(=O)[C@H](CCCNC(=N)N)NC(=O)[C@H](CCC(N)=O)NC(=O)[C@@H](NC(=O)[C@H](C)NC(=O)[C@@H]1CSSC[C@H](NC(=O)[C@H](CCCN)NC(=O)[C@@H](CCCNC(=N)N)NC(=O)[C@@H](CCCNC(=N)N)NC(=O)COCCOCCNC(=O)COCCOCCNC(=O)CC[C@H](NC(=O)CCCCCCCCCCCCCCCCC(=O)O)C(=O)O)C(=O)N[C@@H](CC(N)=O)C(=O)N[C@@H]([C@@H](C)O)C(=O)N[C@@H](C)C(=O)N[C@@H]([C@@H](C)O)C(=O)N1)[C@@H](C)O)C(=O)N[C@@H](CC(C)C)C(=O)N1CCC[C@H]1C(=O)N1CCC[C@H]1C(=O)N[C@H](C(=O)N[C@@H](CC(N)=O)C(=O)N[C@H](C(=O)NCC(=O)N[C@@H](CO)C(=O)N[C@@H](CC(N)=O)C(=O)N[C@H](C(=O)N[C@@H](Cc1ccc(O)cc1)C(N)=O)[C@@H](C)O)C(C)C)[C@@H](C)O [Example 120, N-alpha-[2-(2-{2-[2-(2-{2-[(S)-4-Carboxy-4-(17-carboxyheptadecanoylamino)butyrylamino]ethoxy}ethoxy)acetylamino]ethoxy}ethoxy)acetyl]-D-Arg-D-Arg-[Orn1,Glu14,His17,Arg18]-pramlintide] ({C18 diacid-γGlu-AEEA-AEEA}-[dR][dR][Orn]CNTATCATQRLAEFLHRSSNNFGPILPPTNVGSNTY-NH2; disulfide 4-9 (inferred)) | 53 | 2
